According to US4055468A, “Processes for producing physiologically active peptide and its N-acyl derivatives” (priority 1974, dated 1977):
Like-named read-outs stand apart in the source and are kept apart here. Blank lines part the entries; values can stand above or below the compound they belong to.

Assays:
[1] = tested on: enzyme decomposing R--Val--Val--X--Ala--X to Val--X--Ala--X; assay: Effect of various inhibitors and metal ions on enzyme activity; format: biochemical, Bacillus sphaericus ATCC 14577
[2] = tested on: enzyme decomposing R--Val--Val--X--Ala--X to Val--X--Ala--X; assay: Substrate specificity of the purified enzyme; format: biochemical, Bacillus sphaericus ATCC 14577; conditions: in words
Protocol: A medium having the same composition as in Experiment 1 was prepared and 50 ml of the medium was poured into a 500 ml flask. After sterilization at 120° C for 10 minutes, the medium was inoculated with Bacillus sphaericus ATCC 14577 and incubated on a reciprocal shaker (120 r.p.m.) at 30° C for 24 hours to obtain a seed culture. To a 20l jar fermentor was added to 10l of the medium having the same composition, sterilized at 120° C for 15 minutes and inoculated with the seed culture. The cultivation was performed at 30° C with agitation (300 r.p.m.) and aeration (5l/minute).
After 15 hours growth, isovalery-L-valvy-L-valyl-4-amino-3-hydroxy-6-methylheptanoyl-L-alanyl-4-amino-3-hydroxy-6-methylheptanoic acid was added to the culture in a concentration of 50 meg/ml and the cultivation was continued for another 33 hours. Cells were harvested by centrifugation with a Spharpless centrifuge, suspended in 2l of cold 0.01M phosphate buffer, pH 7.0, and disrupted by sonication 20 Kc for 2 minutes. These and the following procedures were carried out under 4° C. A supernatant from the sonicate was heated at 60° C for 10 minutes at pH 7.0. The resulting precipitate was removed by centrifugation and 3.8 g of streptomycin sulfate was added to 1.7l of the supernatant. Precipitated nucleic acid was removed by centrifugation. […]

Cathepsin D = Cathepsin D (Homo sapiens, UniProt P07339); assay: anti-cathepsin D activity; format: biochemical
Cathepsin D, sequence (P07339 65-412, species assumed): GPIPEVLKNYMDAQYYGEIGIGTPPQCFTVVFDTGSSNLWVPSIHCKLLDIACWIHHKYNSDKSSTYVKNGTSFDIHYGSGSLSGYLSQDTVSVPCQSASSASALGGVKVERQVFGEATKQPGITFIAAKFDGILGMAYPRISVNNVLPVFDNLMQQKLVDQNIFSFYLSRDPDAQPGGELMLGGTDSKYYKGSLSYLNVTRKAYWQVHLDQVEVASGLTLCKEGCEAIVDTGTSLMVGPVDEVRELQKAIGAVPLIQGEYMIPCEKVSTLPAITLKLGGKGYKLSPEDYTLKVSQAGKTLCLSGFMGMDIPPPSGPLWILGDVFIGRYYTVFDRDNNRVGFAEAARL
Protocol: (§1) As an example of one of the physiological activities of the peptide and N-acyl derivatives thereof obtained according to the present invention, anti-pepsin and anti-cathepsin D activities and also acute toxicity are given in Table 8. The activities (ID50) were assayed according to the method described above and The Journal of Antibiotics 25 689 (1972). The anti-protease activities of the peptide and N-acyl derivatives thereof are extremely high.

pepsin = target: T1, pepsin (Sus scrofa, UniProt P00791); assay: Assay of pepsin-inhibitory activity (casein digestion); format: biochemical
T1 construct: purchased SIGMA 2XCRY (grade as printed; no catalogue number)
T1 sequence (P00791 60-385): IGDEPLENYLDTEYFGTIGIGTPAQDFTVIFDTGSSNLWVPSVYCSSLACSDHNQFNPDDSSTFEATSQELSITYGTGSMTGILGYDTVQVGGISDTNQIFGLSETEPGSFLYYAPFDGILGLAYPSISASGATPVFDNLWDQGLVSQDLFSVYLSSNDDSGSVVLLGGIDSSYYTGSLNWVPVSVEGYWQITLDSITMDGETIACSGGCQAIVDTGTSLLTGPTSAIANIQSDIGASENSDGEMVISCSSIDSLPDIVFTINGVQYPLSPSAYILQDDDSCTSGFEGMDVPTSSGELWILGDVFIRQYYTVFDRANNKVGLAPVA
Protocol: Assay of pepsin-inhibitory activity in this invention was performed according to the following method: A mixture of 1 ml of 0.6%, by weight, highly purified case in dissolved in 0.08 M lactate buffer solution, pH 2.2, 0.7 ml of 0.02M KCl--HCl buffer solution, pH 2.0, and 0.2 ml of solution containing the compound sample was incubated at 37° C for 3 minutes. To this mixture 4 meg of pepsin (SIGMA, 2XCRY) dissolved in 0.1 ml of 0.2M KCl--HCl buffer solution were added. The mixture was incubated at 37° C for 30 minutes. The reaction was stopped by the addition of 2.0 ml of 1.7M perchloric acid. After 1 hour at room temperature, the optical density (a) of the supernatant liquid was read at 280 mμ. An inhibition rate was obtained according to:
where (b) is the optical density at 280 mμ of the tube without the sample solution.
The ID50 is defined as the amount necessary for 50% of the inhibition rate.

mice [3] = assay: Acute toxicity by abdominal injection; format: in vivo
Protocol: as §1
Acute toxicity was examined by administering the compounds to the mice by
(§2) The peptide Val--X--Ala--X and its N-acyl derivatives according to this invention have low toxicity; mice, dogs, rats and rabbits tolerated oral administration of more than 2.000 mg/kg. of the compounds, and LD50 of the compounds for animals when administered by intraperitoneal injections are shown in Table 8. Daily 250 mg/kg oral administrations of each of the compounds to rats for 90 days caused no toxicity, and the rats grew at the normal growth rate.

Stomach ulcers in rats = assay: Stress stomach ulcers in rats (method of Takagi et al.); format: in vivo; conditions: 50 - 200 mg/kg immediately after the stress and once daily for 4 days
Protocol: Stomach ulcers in rats made by the method described by Takagi et al. in the Japanese Journal of Pharmacology, 18, 9-19, 1958, that is, placing male rats in a cage at 23° C. for 22 hours, are protected or therapeutically treated by the compounds. […] When the dose was 10 mg/kg, the inhibition percentage of the ulcers was 50 - 60%.

dogs = assay: Tolerated oral administration; format: in vivo
Protocol: as §2

rabbits = assay: Tolerated oral administration; format: in vivo
Protocol: as §2

mice [4] = assay: Tolerated oral administration; format: in vivo
Protocol: as §2

rats = assay: Tolerated oral administration; format: in vivo
Protocol: as §2

Solubility in solvents = format: physicochemical
[5] = Concentration 2 mM, control 100
[6] = Concentration 10 mM, control 100

Inhibition of the enzyme ([1]; 2mM): Inhibition
Relative activity [1, 5]: 0
Structure (SMILES): O[C@H](CS)[C@H](O)CS (racemic) [Dithiothreitol]

susceptibility to the enzyme (hydrolysis) [2]: not split
Structure (SMILES): CC(C)CC(=O)N[C@H](C(=O)O)C(C)C [IVA--Val]

Structure (SMILES): CC(C)C[C@H](NC(=O)[C@H](C)NC(=O)C[C@H](O)[C@H](CC(C)C)NC(=O)[C@@H](NC(=O)c1ccccc1)C(C)C)[C@@H](O)CC(=O)O [Benzoyl--Val--X--Ala--X, N--benzoyl--Val--X--Ala--X]
IC50 (Cathepsin D): 82.4 nM
IC50 (pepsin): 51.1 nM
Acute toxicity(mg/kg) LD50 (mice [3]): 1350 mg/kg

Structure (SMILES): CCCCCCCCCCCCCCCC(=O)N[C@H](C(=O)N[C@@H](CC(C)C)[C@@H](O)CC(=O)N[C@@H](C)C(=O)N[C@@H](CC(C)C)[C@@H](O)CC(=O)O)C(C)C [Palmitoyl--Val--X--Ala--X, N--palmitoyl--Val--X--Ala--X]
IC50 (Cathepsin D): 1480 nM

Structure (SMILES): [Cl-].[Cl-].[Zn+2] [Zinc Chloride]
Relative activity [1, 5]: 66
Relative activity [1, 6]: 44

Structure (SMILES): CC(C)CC(NC(=O)[C@H](C)NC(=O)CC(O)C(CC(C)C)NC(=O)[C@@H](NC(=O)COc1ccccc1)C(C)C)C(O)CC(=O)O (stereo partly drawn) [Phenoxyacetyl--Val--X--Ala--X, n--phenoxyacetyl--Val--X--Ala--X]
IC50 (Cathepsin D): 12.6 nM
Acute toxicity(mg/kg) LD50 (mice [3]): 1500 mg/kg

Structure (SMILES): CC(C)CC(=O)N[C@H](C(=O)N[C@H](C(=O)N[C@@H](CC(C)C)[C@@H](O)CC(=O)N[C@@H](C)C(=O)N[C@@H](CC(C)C)[C@@H](O)CC(=O)O)C(C)C)C(C)C [pepstatin]
cure of ulcers (Stomach ulcers in rats): rapid cure of ulcers

Structure (SMILES): OCCS [β-Mercaptoethanol]
Inhibition of the enzyme ([1]; 2mM): Inhibition
Relative activity [1, 5]: 0

Structure (SMILES): CC(=O)[O-].CC(=O)[O-].[Pb+2] [Lead Acetate]
Relative activity [1]: 43

Structure (SMILES): [Cl][Co][Cl] [Cobalt Chloride]
increase in activity ([1]; 2mM): 34%
increase in activity ([1]; 10 mM): 66%

Structure (SMILES): CC(C)C[C@H](NC(=O)[C@H](C)NC(=O)C[C@H](O)[C@H](CC(C)C)NC(=O)[C@@H](NC(=O)C(C)C)C(C)C)[C@@H](O)CC(=O)O [Isobutyryl--Val--X--Ala--X, N--isobutyryl--Val--X--Ala--X]
IC50 (Cathepsin D): 489 nM

Structure (SMILES): O=C(O)CI [Monoiodoacetic Acid]
Relative activity [1]: 84

Structure (SMILES): [Cl][Hg][Cl] [HgCl2]
Inhibition of the enzyme ([1]; 2mM): Inhibition

Structure (SMILES): CC(=O)N[C@H](C(=O)NC(CC(C)C)C(O)CC(=O)N[C@@H](C)C(=O)NC(CC(C)C)C(O)CC(=O)O)C(C)C (stereo partly drawn) [Acetyl--Val--X--Ala--X, N--acetyl--Val--X--Ala--X]
IC50 (Cathepsin D): 771 nM
IC50 (pepsin): 56.9 nM
Acute toxicity(mg/kg) LD0 (mice [3]): ≥ 4000 mg/kg

Structure (SMILES): [N-]=[N+]=[N-].[Na+] [NaN3]
Relative activity [1]: 100

Relative activity [1, 5]: 30
Structure (SMILES): O=C(O)CN(CCN(CC(=O)O)CC(=O)O)CC(=O)O [Ethylenediaminetetraacetic Acid]

Structure (SMILES): c1cnc2c(c1)ccc1cccnc12 [o-Phenanthroline]
Inhibition of the enzyme ([1]; 2mM): Inhibition
Relative activity [1, 5]: 0

Structure (SMILES): CC(C)C[C@H](NC(=O)[C@H](C)NC(=O)C[C@H](O)[C@H](CC(C)C)NC(=O)[C@@H](NC(=O)C(C)Oc1ccccc1)C(C)C)[C@@H](O)CC(=O)O (stereo partly drawn) [Phenoxypropionyl--Val--X--Ala--X, N--2--phenoxypropionyl--Val--X--Ala--X]
IC50 (Cathepsin D): 15.4 nM
Acute toxicity(mg/kg) LD50 (mice [3]): 2100 mg/kg

Structure (SMILES): CC(=O)[O-].CC(=O)[O-].[Hg+2] [Mercuric Acetate]
Relative activity [1]: 0

Structure (SMILES): CC(C)CC(=O)N[C@H](C(=O)N[C@@H](CC(C)C)[C@@H](O)CC(=O)N[C@@H](C)C(=O)N[C@@H](CC(C)C)[C@@H](O)CC(=O)O)C(C)C [Isovaleryl--Val--X--Ala--X, N--isovaleryl--Val--X--Ala--]
IC50 (Cathepsin D): 76.7 nM
Acute toxicity(mg/kg) LD0 (mice [3]): ≥ 3000 mg/kg

Structure (SMILES): O=C(O)c1cc[c]([Hg][Cl])cc1 [p-Chloromercuribenzoate]
Inhibition of the enzyme [1]: Inhibition
Relative activity [1, 5]: 2

Structure (SMILES): [Ca+2].[Cl-].[Cl-] [Calcium Choride]
increase in activity ([1]; 10 mM): 29%
Relative activity [1, 5]: 110
Relative activity [1, 6]: 129

Inhibition of the enzyme ([1]; 2mM): Inhibition
Relative activity [1, 5]: 0
Structure (SMILES): O=C1CCC(=O)N1Br [N-Bromosuccinimide]

Structure (SMILES): CC(C)C[C@H](NC(=O)[C@H](C)NC(=O)C[C@H](O)[C@H](CC(C)C)NC(=O)[C@@H](N)C(C)C)[C@@H](O)CC(=O)O [Val--X--Ala--X, L-valyl-4-amino-3-hydroxy-6-methylheptanoyl-L-alanyl-4-amino-3-hydroxy-6-methylheptanoic acid]
tolerated oral administration (dogs): more than 2.000 mg/kg
tolerated oral administration (rabbits): more than 2.000 mg/kg
tolerated oral administration (mice [4]): more than 2.000 mg/kg
tolerated oral administration (rats): more than 2.000 mg/kg
solubility (Solubility in solvents; ether, ethyl acetate, and butyl acetate): insoluble
solubility (Solubility in solvents; methanol, ethanol, pyridine, and acetic acid): soluble
solubility (Solubility in solvents; n-proponal, n-butanol, n-amyl alcohol and acetone): slightly soluble
IC50 (Cathepsin D): 12900 nM
Acute toxicity(mg/kg) LD0 (mice [3]): ≥ 5000 mg/kg
